From PubChem BioAssay AID1259407 (Chemical Carcinogenesis Research Information System (CCRIS), 2018)
The source made the active and inactive calls. How the calls were made is not given here.

Tested on: CCRIS mutagenicity, Ames/micronucleus/aberration tests
Assay: CCRIS mutagenicity studies
[1] = Test System: AMES SALMONELLA TYPHIMURIUM, Strain/Indicator: TA98, Metabolic Activation: NONE, Method: PREINCUBATION
[2] = Test System: AMES SALMONELLA TYPHIMURIUM, Strain/Indicator: TA98, Metabolic Activation: NONE, Method: STANDARD PLATE
[3] = Test System: AMES SALMONELLA TYPHIMURIUM, Strain/Indicator: TA100, Metabolic Activation: NONE, Method: STANDARD PLATE
[4] = Test System: AMES SALMONELLA TYPHIMURIUM, Strain/Indicator: TA1535, Metabolic Activation: NONE, Method: STANDARD PLATE
[5] = Test System: AMES SALMONELLA TYPHIMURIUM, Strain/Indicator: TA1537, Metabolic Activation: NONE, Method: STANDARD PLATE
[6] = Test System: AMES SALMONELLA TYPHIMURIUM, Strain/Indicator: TA1538, Metabolic Activation: NONE, Method: STANDARD PLATE
[7] = Test System: AMES SALMONELLA TYPHIMURIUM, Strain/Indicator: TA1535, Metabolic Activation: HAMSTER, LIVER, S-9, AROCLOR 1254, Method: STANDARD PLATE
[8] = Test System: AMES SALMONELLA TYPHIMURIUM, Strain/Indicator: TA100, Metabolic Activation: RAT, LIVER, S-9, AROCLOR 1254, Method: STANDARD PLATE
[9] = Test System: AMES SALMONELLA TYPHIMURIUM, Strain/Indicator: TA98, Metabolic Activation: RAT, LIVER, S-9, AROCLOR 1254, Method: STANDARD PLATE
[10] = Test System: AMES SALMONELLA TYPHIMURIUM, Strain/Indicator: TA1535, Metabolic Activation: RAT, LIVER, S-9, AROCLOR 1254, Method: STANDARD PLATE
[11] = Test System: AMES SALMONELLA TYPHIMURIUM, Strain/Indicator: TA1537, Metabolic Activation: RAT, LIVER, S-9, AROCLOR 1254, Method: STANDARD PLATE

Question: For `CCc1c2ccccc2cc2c1c1c(c3ccccc32)N1`, which mutagenic call [1] is on record?
Answer: active; positive

Question: What does the source list for `CCNc1cc(O)ccc1C`?
Answer: mutagenic call (Test System: AMES SALMONELLA TYPHIMURIUM, Strain/Indicator: TA97, Metabolic Activation: HAMSTER, LIVER, S-9, AROCLOR 1254 (10%), Method: PREINCUBATION): inactive; negative; mutagenic call (Test System: AMES SALMONELLA TYPHIMURIUM, Strain/Indicator: TA97, Metabolic Activation: NONE, Method: PREINCUBATION): inactive; negative; mutagenic call (Test System: AMES SALMONELLA TYPHIMURIUM, Strain/Indicator: TA97, Metabolic Activation: RAT, LIVER, S-9, AROCLOR 1254 (10%), Method: PREINCUBATION): inactive; negative; mutagenic call (Test System: AMES SALMONELLA TYPHIMURIUM, Strain/Indicator: TA98, Metabolic Activation: HAMSTER, LIVER, S-9, AROCLOR 1254 (10%), Method: PREINCUBATION): active; positive; mutagenic call [1]: inactive; negative; mutagenic call (Test System: AMES SALMONELLA TYPHIMURIUM, Strain/Indicator: TA98, Metabolic Activation: RAT, LIVER, S-9, AROCLOR 1254 (10%), Method: PREINCUBATION): active; positive; mutagenic call (Test System: AMES SALMONELLA TYPHIMURIUM, Strain/Indicator: TA100, Metabolic Activation: HAMSTER, LIVER, S-9, AROCLOR 1254 (10%), Method: PREINCUBATION): active; positive; mutagenic call (Test System: AMES SALMONELLA TYPHIMURIUM, Strain/Indicator: TA100, Metabolic Activation: NONE, Method: PREINCUBATION): inactive; negative; mutagenic call (Test System: AMES SALMONELLA TYPHIMURIUM, Strain/Indicator: TA100, Metabolic Activation: RAT, LIVER, S-9, AROCLOR 1254 (10%), Method: PREINCUBATION): inactive; negative; mutagenic call (Test System: AMES SALMONELLA TYPHIMURIUM, Strain/Indicator: TA1535, Metabolic Activation: HAMSTER, LIVER, S-9, AROCLOR 1254 (10%), Method: PREINCUBATION): inactive; negative; mutagenic call (Test System: AMES SALMONELLA TYPHIMURIUM, Strain/Indicator: TA1535, Metabolic Activation: NONE, Method: PREINCUBATION): inactive; negative; mutagenic call (Test System: AMES SALMONELLA TYPHIMURIUM, Strain/Indicator: TA1535, Metabolic Activation: RAT, LIVER, S-9, AROCLOR 1254 (10%), Method: PREINCUBATION): inactive; negative

Question: `O=Nc1c(-c2ccc([N+](=O)[O-])cc2)nc2sccn12` was tested. Which mutagenic call [2] did it give?
Answer: active; positive

Question: And the mutagenic call [3]?
Answer: active; positive

Question: And the mutagenic call [4]?
Answer: active; positive

Question: What about the mutagenic call [5] of the same molecule?
Answer: active; positive

Question: What about the mutagenic call [6] of the same molecule?
Answer: active; positive

Question: Which mutagenic call [7] does the source give for `CN(Cc1ccc(Br)cc1)N=O` here?
Answer: active; positive

Question: And the mutagenic call [4]?
Answer: inactive; negative

Question: Which mutagenic call [8] does the source give for `c1ccc2c(c1)ccc1ccc3c(c12)CCC3` here?
Answer: active; positive

Question: `N#CCCl` was tested. Which mutagenic call [2] did it give?
Answer: inactive; negative

Question: What about the mutagenic call [9] of the same molecule?
Answer: inactive; negative

Question: And the mutagenic call (Test System: AMES SALMONELLA TYPHIMURIUM, Strain/Indicator: TA100, Metabolic Activation: NONE, Method: FLUCTUATION TEST)?
Answer: inactive; negative

Question: What about the mutagenic call [3] of the same molecule?
Answer: inactive; negative

Question: And the mutagenic call (Test System: AMES SALMONELLA TYPHIMURIUM, Strain/Indicator: TA100, Metabolic Activation: RAT, LIVER, S-9, AROCLOR 1254, Method: FLUCTUATION TEST)?
Answer: active; positive

Question: What about the mutagenic call [8] of the same molecule?
Answer: inactive; negative

Question: What about the mutagenic call [4] of the same molecule?
Answer: inactive; negative

Question: What about the mutagenic call [10] of the same molecule?
Answer: inactive; negative

Question: With `Cc1cccc(NS(=O)(=O)c2cccc3cccnc23)c1` as the molecule, how does the mutagenic call [2] read?
Answer: inactive; negative

Question: What about the mutagenic call [9] of the same molecule?
Answer: inactive; negative

Question: And the mutagenic call [3]?
Answer: inactive; negative

Question: And the mutagenic call [8]?
Answer: inactive; negative

Question: What about the mutagenic call [4] of the same molecule?
Answer: inactive; negative

Question: What about the mutagenic call [10] of the same molecule?
Answer: inactive; negative

Question: And the mutagenic call [5]?
Answer: inactive; negative

Question: And the mutagenic call [11]?
Answer: inactive; negative

Question: With `Nc1cc(Cl)c(Cl)c(Cl)c1` as the molecule, how does the mutagenic call [2] read?
Answer: inactive; negative

Question: What about the mutagenic call [9] of the same molecule?
Answer: inactive; negative

Question: And the mutagenic call [3]?
Answer: inactive; negative

Question: What about the mutagenic call [8] of the same molecule?
Answer: inactive; negative

Question: With `CCCCCCCC/C=C\CCCCCCCC(N)=O` as the molecule, how does the mutagenic call (Test System: Ames Salmonella typhimurium, Strain/Indicator: TA98, Metabolic Activation: None, Method: Preincubation) read?
Answer: inactive; negative. precipitation at 3 highest doses.

Question: What about the mutagenic call (Test System: Ames Salmonella typhimurium, Strain/Indicator: TA98, Metabolic Activation: Rat, Liver, S9, Phenobarbital and 5,6-benzoflavone, Method: Preincubation) of the same molecule?
Answer: inactive; negative. precipitation at 3 highest doses.

Question: And the mutagenic call (Test System: Ames Salmonella typhimurium, Strain/Indicator: TA100, Metabolic Activation: None, Method: Preincubation)?
Answer: inactive; negative. precipitation at 3 highest doses.

Question: And the mutagenic call (Test System: Ames Salmonella typhimurium, Strain/Indicator: TA100, Metabolic Activation: Rat, Liver, S9, Phenobarbital and 5,6-benzoflavone, Method: Preincubation)?
Answer: inactive; negative. precipitation at 3 highest doses.

Question: And the mutagenic call (Test System: Ames Salmonella typhimurium, Strain/Indicator: TA1535, Metabolic Activation: None, Method: Preincubation)?
Answer: inactive; negative. precipitation at 3 highest doses.

Question: And the mutagenic call (Test System: Ames Salmonella typhimurium, Strain/Indicator: TA1535, Metabolic Activation: Rat, Liver, S9, Phenobarbital and 5,6-benzoflavone, Method: Preincubation)?
Answer: inactive; negative. precipitation at 3 highest doses.

Question: What about the mutagenic call (Test System: Ames Salmonella typhimurium, Strain/Indicator: TA1537, Metabolic Activation: None, Method: Preincubation) of the same molecule?
Answer: inactive; negative. precipitation at 3 highest doses.

Question: And the mutagenic call (Test System: Ames Salmonella typhimurium, Strain/Indicator: TA1537, Metabolic Activation: Rat, Liver, S9, Phenobarbital and 5,6-benzoflavone, Method: Preincubation)?
Answer: inactive; negative. precipitation at 3 highest doses.

Question: What about the mutagenic call (Test System: E. coli, Strain/Indicator: WP2uvrA/pKM101, Metabolic Activation: None, Method: Preincubation) of the same molecule?
Answer: inactive; negative. precipitation at 3 highest doses.

Question: And the mutagenic call (Test System: E. coli, Strain/Indicator: WP2uvrA/pKM101, Metabolic Activation: Rat, Liver, S9, Phenobarbital and 5,6-benzoflavone, Method: Preincubation)?
Answer: inactive; negative. precipitation at 3 highest doses.

Question: `CSC[C@H](NC(=O)COc1cccc2cnccc12)C(=O)N[C@@H](Cc1ccccc1)[C@H](O)C(=O)N1CSC[C@H]1C(=O)NC(C)(C)C` was tested. Which mutagenic call (Test System: AMES SALMONELLA TYPHIMURIUM, Strain/Indicator: TA98, Metabolic Activation: HAMSTER, LIVER, S-9, AROCLOR 1254, Method: STANDARD PLATE) did it give?
Answer: inactive; negative

Question: What about the mutagenic call [2] of the same molecule?
Answer: inactive; negative

Question: And the mutagenic call [9]?
Answer: inactive; negative

Question: What about the mutagenic call (Test System: AMES SALMONELLA TYPHIMURIUM, Strain/Indicator: TA100, Metabolic Activation: HAMSTER, LIVER, S-9, AROCLOR 1254, Method: STANDARD PLATE) of the same molecule?
Answer: inactive; negative

Question: What about the mutagenic call [3] of the same molecule?
Answer: inactive; negative

Question: What about the mutagenic call [8] of the same molecule?
Answer: inactive; negative

Question: What about the mutagenic call [7] of the same molecule?
Answer: inactive; negative

Question: And the mutagenic call [4]?
Answer: inactive; negative

Question: And the mutagenic call [10]?
Answer: inactive; negative

Question: And the mutagenic call (Test System: AMES SALMONELLA TYPHIMURIUM, Strain/Indicator: TA1537, Metabolic Activation: HAMSTER, LIVER, S-9, AROCLOR 1254, Method: STANDARD PLATE)?
Answer: inactive; negative

Question: What about the mutagenic call [5] of the same molecule?
Answer: inactive; negative

Question: And the mutagenic call [11]?
Answer: inactive; negative

Question: And the mutagenic call (Test System: AMES SALMONELLA TYPHIMURIUM, Strain/Indicator: TA1538, Metabolic Activation: HAMSTER, LIVER, S-9, AROCLOR 1254, Method: STANDARD PLATE)?
Answer: inactive; negative

Question: And the mutagenic call [6]?
Answer: inactive; negative

Question: And the mutagenic call (Test System: AMES SALMONELLA TYPHIMURIUM, Strain/Indicator: TA1538, Metabolic Activation: RAT, LIVER, S-9, AROCLOR 1254, Method: STANDARD PLATE)?
Answer: inactive; negative

Question: And the mutagenic call (Test System: Mouse lymphoma, Strain/Indicator: L5178Y (tk+/tk-), Metabolic Activation: None, Method: Suspension/plate)?
Answer: inactive; negative

Question: What about the mutagenic call (Test System: Mouse lymphoma, Strain/Indicator: L5178Y (tk+/tk-), Metabolic Activation: Rat, Liver, S-9, Aroclor 1254, Method: Suspension/plate) of the same molecule?
Answer: active; equivocal (previous evaluation positive)

Question: For `CCOC(=O)c1ccc(N(O)C=O)cc1`, which mutagenic call [2] is on record?
Answer: inactive; negative

Question: What about the mutagenic call [9] of the same molecule?
Answer: inactive; negative

Question: And the mutagenic call [3]?
Answer: inactive; negative

Question: What about the mutagenic call [8] of the same molecule?
Answer: inactive; negative
